Laboratory results reported in ChEMBL document CHEMBL2380208, “Novel quinoline derivatives as inhibitors of bacterial DNA gyrase and topoisomerase IV” (Bioorg Med Chem Lett, 2013).
Values after ≈ are worked out from the molar mass of the structure shown.

Assays:
DNA gyrase = DNA gyrase (Staphylococcus aureus, UniProt P0A0K8+P20831); assay: Inhibition of Staphylococcus aureus DNA gyrase; assay type: protein-complex assay
Staphylococcus aureus [1] = assay: Antibacterial activity against fluoroquinolone-resistant Staphylococcus aureus 1095; assay type: functional
Staphylococcus aureus [2] = assay: Antibacterial activity against Staphylococcus aureus 1146; assay type: functional
[3] = Inhibition of Staphylococcus aureus DNA topoisomerase 4
Staphylococcus aureus [4] = assay: Antibacterial activity against fluoroquinolone-resistant Staphylococcus aureus harboring DNA gyrase D83N mutant; assay type: functional
Staphylococcus aureus [5] = assay: Antibacterial activity against fluoroquinolone-resistant Staphylococcus aureus harboring DNA gyrase M121K mutant; assay type: functional

Structure (SMILES) | IC50 (DNA gyrase) [µM] | MIC (Staphylococcus aureus [1]) [µg/mL] | MIC (Staphylococcus aureus [2]) [µg/mL] | IC50 [3] [µM] | MIC (Staphylococcus aureus [4]) [µg/mL] | MIC (Staphylococcus aureus [5]) [µg/mL]
COc1ccc2nccc([C@@H](O)CC[C@@H]3CCN(C4CC(c5ccccc5OC)C4)C[C@@H]3C(=O)O)c2c1 (stereo partly drawn) | 6.25 | 1 (≈ 1.98 µM) | 0.5 (≈ 0.991 µM) | > 240 | – | –
COc1ccc2nccc([C@@H](O)CC[C@@H]3CCN(C4CC(c5cc(C#N)ccc5F)C4)C[C@@H]3C(=O)O)c2c1 (stereo partly drawn) | 9.4 | 8 (≈ 15.5 µM) | 2 (≈ 3.86 µM) | 120 | 64 (≈ 124 µM) | –
COc1ccc2nccc([C@@H](O)CC[C@@H]3CCN(C4CC(c5ccc(F)c(C#N)c5)C4)C[C@@H]3C(=O)O)c2c1 (stereo partly drawn) | 3.13 | > 64 | – | > 200 | – | –
COc1ccc2nccc([C@@H](O)CC[C@@H]3CCN(C4CC(c5c(F)cc(F)cc5F)C4)C[C@@H]3C(=O)O)c2c1 (stereo partly drawn) | 6.25 | 0.5 (≈ 0.946 µM) | – | 120 | > 64 | > 64
COc1ccc2nccc([C@@H](O)CC[C@@H]3CCN(C4CC(c5ccnc(C)n5)C4)C[C@@H]3C(=O)O)c2c1 (stereo partly drawn) | 50 | > 64 | > 64 | > 120 | – | –
COc1ccc2nccc([C@@H](O)CC[C@@H]3CCN(C4CC(c5cc(F)ccc5C)C4)C[C@@H]3C(=O)O)c2c1 (stereo partly drawn) | 2.3 | 0.5 (≈ 0.987 µM) | 0.125 (≈ 0.247 µM) | 45 | – | –
COc1ccc2nccc([C@@H](O)CC[C@@H]3CCN(C4CC(c5ccc(C#N)cc5)C4)C[C@@H]3C(=O)O)c2c1 (stereo partly drawn) | > 50 | > 64 | > 64 | 240 | – | –
COc1ccc2nccc([C@@H](O)CC[C@@H]3CCN(C4CC(c5ccn(C)n5)C4)C[C@@H]3C(=O)O)c2c1 (stereo partly drawn) | 19 | > 64 | > 64 | > 120 | – | –
COc1ccc2nccc([C@@H](O)CC[C@@H]3CCN(C4CC(c5cccc(OC)c5F)C4)C[C@@H]3C(=O)O)c2c1 (stereo partly drawn) | 19 | 64 (≈ 122 µM) | – | > 200 | > 64 | –
COc1ccc2nccc([C@@H](O)CC[C@@H]3CCN(C4CC(c5cccc(C(F)(F)F)c5F)C4)C[C@@H]3C(=O)O)c2c1 (stereo partly drawn) | 6.25 | 0.5 (≈ 0.892 µM) | – | 200 | – | > 64
COc1ccc2nccc([C@@H](O)CC[C@@H]3CCN(C4CC(c5ccncn5)C4)C[C@@H]3C(=O)O)c2c1 (stereo partly drawn) | 19 | > 64 | 64 (≈ 134 µM) | 120 | – | –
COc1ccc2nccc([C@@H](O)CC[C@@H]3CCN(C4CC(c5c(F)ccc(Cl)c5F)C4)C[C@@H]3C(=O)O)c2c1 (stereo partly drawn) | 3.13 | 0.25 (≈ 0.459 µM) | – | 25 | > 64 | > 64
COc1ccc2nccc([C@@H](O)CC[C@@H]3CCN(C4CC(c5c(F)cccc5Cl)C4)C[C@@H]3C(=O)O)c2c1 (stereo partly drawn) | 4.7 | – | – | 60 | 64 (≈ 121 µM) | 32 (≈ 60.7 µM)
COc1ccc2nccc([C@@H](O)CC[C@@H]3CCN(C4CC(c5ccc(C(F)(F)F)cc5F)C4)C[C@@H]3C(=O)O)c2c1 (stereo partly drawn) | 6.25 | 4 (≈ 7.14 µM) | – | > 200 | > 64 | –
COc1ccc(C2CC(N3CC[C@@H](CC[C@H](O)c4ccnc5ccc(OC)cc45)[C@@H](C(=O)O)C3)C2)c(F)c1 (stereo partly drawn) | 50 | 64 (≈ 122 µM) | – | > 240 | > 64 | –
COc1ccc2nccc([C@@H](O)CC[C@@H]3CCN(C4CC(c5ccc(Br)cc5F)C4)C[C@@H]3C(=O)O)c2c1 (stereo partly drawn) | 6.25 | 8 (≈ 14 µM) | – | > 200 | > 64 | > 64
COc1ccc2nccc([C@@H](O)CC[C@@H]3CCN(C4CC(c5c(F)cccc5C(F)(F)F)C4)C[C@@H]3C(=O)O)c2c1 (stereo partly drawn) | 19 | 2 (≈ 3.57 µM) | 0.5 (≈ 0.892 µM) | > 100 | – | –

Structure (SMILES) | IC50 (DNA gyrase) [µM] | MIC (Staphylococcus aureus [1]) [µg/mL] | MIC (Staphylococcus aureus [2]) [µg/mL] | IC50 [3] [µM] | MIC (Staphylococcus aureus [4]) [µg/mL] | MIC (Staphylococcus aureus [5]) [µg/mL]
COc1ccc2nccc([C@@H](O)CC[C@@H]3CCN(C4CC(c5ccc(-c6ccccc6)cc5)C4)C[C@@H]3C(=O)O)c2c1 (stereo partly drawn) | > 50 | > 64 | > 64 | 120 | – | –
COc1ccc2nccc([C@@H](O)CC[C@@H]3CCN(C4CC(c5ccc(Cl)cc5F)C4)C[C@@H]3C(=O)O)c2c1 (stereo partly drawn) | 6.25 | 1 (≈ 1.9 µM) | – | > 100 | > 64 | > 64
COc1ccc2nccc([C@@H](O)CC[C@@H]3CCN(C4CC(c5cccc(SC)c5)C4)C[C@@H]3C(=O)O)c2c1 (stereo partly drawn) | 4.7 | 8 (≈ 15.4 µM) | 2 (≈ 3.84 µM) | 150 | 64 (≈ 123 µM) | –
COc1ccc2nccc([C@@H](O)CC[C@@H]3CCN(C4CC(c5ccn[nH]5)C4)C[C@@H]3C(=O)O)c2c1 (stereo partly drawn) | > 25 | > 64 | > 64 | > 120 | – | –
COc1ccc2nccc([C@@H](O)CC[C@@H]3CCN(C4CC(c5ncc(C)o5)C4)C[C@@H]3C(=O)O)c2c1 (stereo partly drawn) | 6.25 | 8 (≈ 16.7 µM) | 2 (≈ 4.17 µM) | > 100 | – | –
COc1ccc2nccc([C@@H](O)CC[C@@H]3CCN(C4CC(c5cc(C)ccc5F)C4)C[C@@H]3C(=O)O)c2c1 (stereo partly drawn) | 1.56 | – | – | 75 | > 64 | > 64
COc1ccc2nccc([C@@H](O)CC[C@@H]3CCN(C4CC(c5cc(F)ccc5OC)C4)C[C@@H]3C(=O)O)c2c1 (stereo partly drawn) | 12.5 | 4 (≈ 7.65 µM) | 0.5 (≈ 0.957 µM) | 37 | – | –
COc1ccc2nccc([C@@H](O)CC[C@@H]3CCN(C4CC(c5cccc(F)c5C)C4)C[C@@H]3C(=O)O)c2c1 (stereo partly drawn) | 25 | 0.5 (≈ 0.987 µM) | – | > 120 | > 64 | > 64
COc1ccc2nccc([C@@H](O)CC[C@@H]3CCN(C4CC(c5cc(Br)ccc5F)C4)C[C@@H]3C(=O)O)c2c1 (stereo partly drawn) | 3.13 | 0.25 (≈ 0.437 µM) | ≤ 0.0625 | 50 | – | –
COc1ccc2nccc([C@@H](O)CC[C@@H]3CCN(C4CC(c5ccno5)C4)C[C@@H]3C(=O)O)c2c1 (stereo partly drawn) | 3.13 | 8 (≈ 17.2 µM) | 2 (≈ 4.3 µM) | 60 | – | –
COc1ccc2nccc([C@@H](O)CC[C@@H]3CCN(C4CC(c5cccc(Cl)c5F)C4)C[C@@H]3C(=O)O)c2c1 (stereo partly drawn) | 2.4 | ≤ 0.0625 | – | 75 | > 64 | > 64
COc1ccc2nccc([C@@H](O)CC[C@@H]3CCN(C4CC(c5ccccc5C(F)(F)F)C4)C[C@@H]3C(=O)O)c2c1 (stereo partly drawn) | 1.56 | 0.25 (≈ 0.461 µM) | 0.125 (≈ 0.23 µM) | 60 | – | –
COc1ccc2nccc([C@@H](O)CC[C@@H]3CCN(C4CC(c5cc(SC)ccc5F)C4)C[C@@H]3C(=O)O)c2c1 (stereo partly drawn) | 3.13 | 2 (≈ 3.71 µM) | 0.25 (≈ 0.464 µM) | 50 | 64 (≈ 119 µM) | –
COc1ccc2nccc([C@@H](O)CC[C@@H]3CCN(C4CC(c5c(F)cccc5OC)C4)C[C@@H]3C(=O)O)c2c1 (stereo partly drawn) | 12.5 | 2 (≈ 3.83 µM) | 0.25 (≈ 0.478 µM) | 100 | – | –
COc1ccc2nccc([C@@H](O)CC[C@@H]3CCN(C4CC(c5cccc(C#N)c5)C4)C[C@@H]3C(=O)O)c2c1 (stereo partly drawn) | 9.4 | 16 (≈ 32 µM) | – | > 200 | – | –
COc1ccc2nccc([C@@H](O)CC[C@@H]3CCN(C4CC(c5ccccc5SC)C4)C[C@@H]3C(=O)O)c2c1 (stereo partly drawn) | 3.13 | 2 (≈ 3.84 µM) | 0.25 (≈ 0.48 µM) | 50 | 64 (≈ 123 µM) | –
COc1ccc2nccc([C@@H](O)CC[C@@H]3CCN(C4CC(c5cc(C(F)(F)F)ccc5F)C4)C[C@@H]3C(=O)O)c2c1 (stereo partly drawn) | 25 | 4 (≈ 7.14 µM) | – | > 100 | – | –
